The subject of the test is U87 cells. The test is described as follows: Matrigel invasion analysis. The test is classed as cell-based, human. The settings on record: U87, 6.25 and 12.5 μM, 24 h, vs negative control. On the procedure: The analysis was completed with U87 and HeLa cell lines to assess the metastatic potential of tumor cells using transwell inserts with an 8 μm pore size polycarbonate membrane (Corning Costar, Cambridge, MA, USA) coated with 1/5 of Matrigel (Beckton Dickinson, Bedford, MA, USA) and air-dried at room temperature. After seeding the U87 and HeLa cell lines (3 × 10^5cells/insert), the complex concentrations were selected as 6.25 or 12.5 μM and incubated at 37°C in a humidified incubator with 5% CO2 for 24 h. The cell monolayers in the transwell inserts were fixed with ice-cold methanol and stained with 0.05% crystal violet for the analysis. The invasion of the cells to the basolateral side of the inserts was investigated using a light microscope with 40× magnification.

Each structure is given as a SMILES string.

Turning to `[Cl][Cu][Cl].c1ccc(-c2nc3ccc(-c4ccc5nc(-c6ccccn6)c(-c6ccccn6)nc5c4)cc3nc2-c2ccccn2)nc1` [Cu(tpbq)Cl2], the anti-invasive effect result was “did not have any anti-invasive effect”.
